Organism: Rattus norvegicus
Experiment: DrugMatrix - Regimen: Daily Repeat
Assay type: toxicity, organism-based, Sprague-Dawley
Design: regimen Daily Repeat, gender Male, age 6-8 weeks
Conditions: in vivo, po, route oral GAVAGE, vehicle .5 % CMC; for ABSOLUTE BASOPHIL / ABSOLUTE EOSINOPHIL / ABSOLUTE LYMPHOCYTE / ABSOLUTE MONOCYTE / ABSOLUTE SEGMENTED NEUTROPHIL / BASOPHIL / EOSINOPHIL / ERYTHROCYTE COUNT / HEMATOCRIT / HEMOGLOBIN / LEUKOCYTE COUNT / LYMPHOCYTE / MEAN CORPUSCULAR HEMOGLOBIN / MEAN CORPUSCULAR HEMOGLOBIN CONCENTRATION / MEAN CORPUSCULAR VOLUME / MONOCYTE / NEUTROPHIL / NUCLEATED RED BLOOD CELLS / PLATELET COUNT: tissue Blood; for ALANINE AMINOTRANSFERASE / ALBUMIN / ALKALINE PHOSPHATASE / ASPARTATE AMINOTRANSFERASE / BLOOD UREA NITROGEN / CARBON DIOXIDE / CHLORIDE / CHOLESTEROL / CREATINE PHOSPHOKINASE / CREATININE / GLUCOSE / LACTATE DEHYDROGENASE / LIPASE / PHOSPHORUS / POTASSIUM / SODIUM / TOTAL BILIRUBIN / TOTAL PROTEIN / URIC ACID: tissue Plasma
[1] = 50 mg/kg, 120 h, dose level Low, time 5 day
[2] = 1500 mg/kg, 72 h, dose level High, time 3 day
[3] = 1500 mg/kg, 120 h, dose level High, time 5 day

With `CN(C)[C@@H]1C(O)=C(C(N)=O)C(=O)[C@@]2(O)C(O)=C3C(=O)c4c(O)ccc(Cl)c4[C@@](C)(O)[C@H]3C[C@@H]12` [CHLORTETRACYCLINE] the “ABSOLUTE BASOPHIL” value [1] was 0 CELLS/uL, the “ABSOLUTE EOSINOPHIL” value [1] was 0 CELLS/uL and the “ABSOLUTE LYMPHOCYTE” value [1] was 12641 CELLS/uL. The “ABSOLUTE MONOCYTE” value [1] was 0 CELLS/uL, the “ABSOLUTE SEGMENTED NEUTROPHIL” value [1] was 859 CELLS/uL and the BASOPHIL [1] was 0%. The EOSINOPHIL [1] was 0%, the “ERYTHROCYTE COUNT” value [1] was 5.53 x10E6/uL and the HEMATOCRIT [1] was 33.27%. For the same molecule, the HEMOGLOBIN [1] was 13.43 G/DL, the “LEUKOCYTE COUNT” value [1] was 13.5 x10E3/uL and the LYMPHOCYTE [1] was 93.33%. For the same molecule, the “MEAN CORPUSCULAR HEMOGLOBIN” value [1] was 24.33 pg, the “MEAN CORPUSCULAR HEMOGLOBIN CONCENTRATION” value [1] was 40.4 G/DL and the “MEAN CORPUSCULAR VOLUME” value [1] was 60.17 fL. For the same molecule, the MONOCYTE [1] was 0%, the NEUTROPHIL [1] was 6.67% and the “NUCLEATED RED BLOOD CELLS” value [1] was 0 /100WBC. For the same molecule, the “PLATELET COUNT” value [1] was 1240.33 x10E3/uL, the “ALANINE AMINOTRANSFERASE” value [1] was 54 u/L and the ALBUMIN [1] was 4.03 G/DL. For the same molecule, the “ALKALINE PHOSPHATASE” value [1] was 291.33 u/L, the “ASPARTATE AMINOTRANSFERASE” value [1] was 84 u/L and the “BLOOD UREA NITROGEN” value [1] was 17.33 mg/dL. For the same molecule, the “CARBON DIOXIDE” value [1] was 22.67 mmol/L, the CHLORIDE [1] was 103.33 MEQ/L and the CHOLESTEROL [1] was 58.33 mg/dL. For the same molecule, the “CREATINE PHOSPHOKINASE” value [1] was 329.33 u/L, the CREATININE [1] was 0.2 mg/dL and the GLUCOSE [1] was 159.67 mg/dL. For the same molecule, the “LACTATE DEHYDROGENASE” value [1] was 155.33 u/L, the LIPASE [1] was 9.33 u/L and the PHOSPHORUS [1] was 12.97 mg/dL. The POTASSIUM [1] was 6.97 MEQ/L, the SODIUM [1] was 144.3 MEQ/L and the “TOTAL BILIRUBIN” value [1] was 0.17 mg/dL. The “TOTAL PROTEIN” value [1] was 5.73 G/DL, the “URIC ACID” value [1] was 2.13 mg/dL and the “ABSOLUTE BASOPHIL” value [2] was 0 CELLS/uL. The “ABSOLUTE EOSINOPHIL” value [2] was 19 CELLS/uL, the “ABSOLUTE LYMPHOCYTE” value [2] was 5616.67 CELLS/uL and the “ABSOLUTE MONOCYTE” value [2] was 262.67 CELLS/uL. The “ABSOLUTE SEGMENTED NEUTROPHIL” value [2] was 601.67 CELLS/uL, the BASOPHIL [2] was 0% and the EOSINOPHIL [2] was 0.33%. For the same molecule, the “ERYTHROCYTE COUNT” value [2] was 5.83 x10E6/uL, the HEMATOCRIT [2] was 36% and the HEMOGLOBIN [2] was 14.6 G/DL. The “LEUKOCYTE COUNT” value [2] was 6.5 x10E3/uL, the LYMPHOCYTE [2] was 86% and the “MEAN CORPUSCULAR HEMOGLOBIN” value [2] was 25.13 pg. For the same molecule, the “MEAN CORPUSCULAR HEMOGLOBIN CONCENTRATION” value [2] was 40.57 G/DL, the “MEAN CORPUSCULAR VOLUME” value [2] was 61.8 fL and the MONOCYTE [2] was 4%. For the same molecule, the NEUTROPHIL [2] was 9.67%, the “NUCLEATED RED BLOOD CELLS” value [2] was 0 /100WBC and the “PLATELET COUNT” value [2] was 1359 x10E3/uL. The “ALANINE AMINOTRANSFERASE” value [2] was 54 u/L, the ALBUMIN [2] was 4.27 G/DL and the “ALKALINE PHOSPHATASE” value [2] was 407 u/L. For the same molecule, the “ASPARTATE AMINOTRANSFERASE” value [2] was 99.33 u/L, the “BLOOD UREA NITROGEN” value [2] was 17 mg/dL and the “CARBON DIOXIDE” value [2] was 25 mmol/L. For the same molecule, the CHLORIDE [2] was 104.33 MEQ/L, the CHOLESTEROL [2] was 70.33 mg/dL and the “CREATINE PHOSPHOKINASE” value [2] was 633 u/L. The CREATININE [2] was 0.16 mg/dL, the GLUCOSE [2] was 163.67 mg/dL and the “LACTATE DEHYDROGENASE” value [2] was 129.67 u/L. For the same molecule, the LIPASE [2] was 9.33 u/L, the PHOSPHORUS [2] was 12.37 mg/dL and the POTASSIUM [2] was 5.95 MEQ/L. For the same molecule, the SODIUM [2] was 148.37 MEQ/L, the “TOTAL BILIRUBIN” value [2] was 0.23 mg/dL and the “TOTAL PROTEIN” value [2] was 6 G/DL. The “URIC ACID” value [2] was 1.87 mg/dL, the “ABSOLUTE BASOPHIL” value [3] was 0 CELLS/uL and the “ABSOLUTE EOSINOPHIL” value [3] was 167.33 CELLS/uL. The “ABSOLUTE LYMPHOCYTE” value [3] was 18100 CELLS/uL, the “ABSOLUTE MONOCYTE” value [3] was 0 CELLS/uL and the “ABSOLUTE SEGMENTED NEUTROPHIL” value [3] was 1266 CELLS/uL. The BASOPHIL [3] was 0%, the EOSINOPHIL [3] was 0.67% and the “ERYTHROCYTE COUNT” value [3] was 5.62 x10E6/uL. The HEMATOCRIT [3] was 34.33%, the HEMOGLOBIN [3] was 13.93 G/DL and the “LEUKOCYTE COUNT” value [3] was 19.53 x10E3/uL. The LYMPHOCYTE [3] was 92.67%, the “MEAN CORPUSCULAR HEMOGLOBIN” value [3] was 24.83 pg and the “MEAN CORPUSCULAR HEMOGLOBIN CONCENTRATION” value [3] was 40.6 G/DL. The “MEAN CORPUSCULAR VOLUME” value [3] was 61.17 fL, the MONOCYTE [3] was 0% and the NEUTROPHIL [3] was 6.67%. For the same molecule, the “NUCLEATED RED BLOOD CELLS” value [3] was 0.33 /100WBC, the “PLATELET COUNT” value [3] was 1340 x10E3/uL and the “ALANINE AMINOTRANSFERASE” value [3] was 61.33 u/L. The ALBUMIN [3] was 3.73 G/DL, the “ALKALINE PHOSPHATASE” value [3] was 422.33 u/L and the “ASPARTATE AMINOTRANSFERASE” value [3] was 86.33 u/L. For the same molecule, the “BLOOD UREA NITROGEN” value [3] was 19.67 mg/dL, the “CARBON DIOXIDE” value [3] was 28.67 mmol/L and the CHLORIDE [3] was 100.67 MEQ/L. The CHOLESTEROL [3] was 57 mg/dL, the “CREATINE PHOSPHOKINASE” value [3] was 301.67 u/L and the CREATININE [3] was 0.19 mg/dL. For the same molecule, the GLUCOSE [3] was 151.33 mg/dL, the “LACTATE DEHYDROGENASE” value [3] was 67 u/L and the LIPASE [3] was 10.33 u/L. For the same molecule, the PHOSPHORUS [3] was 11.03 mg/dL, the POTASSIUM [3] was 5.95 MEQ/L and the SODIUM [3] was 144.1 MEQ/L. For the same molecule, the “TOTAL BILIRUBIN” value [3] was 0.17 mg/dL, the “TOTAL PROTEIN” value [3] was 5.23 G/DL and the “URIC ACID” value [3] was 1.57 mg/dL.

From ChEMBL document CHEMBL3885881, “DrugMatrix”
